A short description of data set [1]: Solubilization of Vitamin A by sulfonated calixarene (UV absorption). The data set is classed as physicochemical. Here is the method:
Testing Method: UV Absorption Spectroscopy.
In 3 mL of deionized water, 5 mg (an excess amount) of Vitamin A was added, and the mixture was shaken overnight. The mixture was then centrifuged to collect the supernatant, and the UV Absorption Curve of the supernatant was measured (Figure 5).
Excess Va was added to each of these three solutions at a concentration of 5 mg/mL and shaken on a shaker to enhance the solubility of Va. After 24 hours, each group of solution was diluted 40-fold for UV absorption wavelength measurement. Meanwhile, Va was dissolved in methanol solution to prepare a 4 mM Va methanol stock solution. The Va methanol stock solution was then diluted in water to prepare a 5 µM Va standard solution with methanol as a solvent aid, which was used for UV absorption wavelength measurement.
An excess amount of Va was added to each of these solutions at 5 mg/mL, and the solutions were agitated on a shaking table to enhance the solubility of Va. After 24 hours, each group of solutions was diluted by an appropriate multiple (to fit the standard working curve described below) and used for the measurement of UV absorbance intensity.
A standard working curve for Va was prepared. A methanol solution containing 4 mM of Va was prepared. […] Subsequently, the UV absorbance intensities of these six groups of solutions with different concentrations of Va were measured, and a standard working curve was prepared.

Data set [2] is described as follows: UV titration, binding constants between SC8A-12C and skincare active substances. The conditions noted are these: 25°C, 1:1 host-guest direct binding model; for Binding constants Ka: host SC8A-12C, active substance 15 µM in deionized water. As for the experimental part:
(§1) Test Method: UV titration.
Test Equipment: A Japan Shimadzu UV-3600 UV-Visible Spectrophotometer, equipped with a temperature control module (model: PTC-348WI), was used. The samples were tested using Shimadzu's quartz cuvettes with an optical path length of 10 mm.
(§2) Reagents: Vitamin A (Va) was purchased from Shanghai Macklin Biochemical Technology Co., Ltd, retinoic acid was purchased from Heowns Biochem Technologies, LLC, Tianjin, and other skincare active substances were commercially available products.
Va was dissolved in methanol to a concentration of 2 mM. During the test, the Va stock solution was added to a cuvette and adjusted to a volume of 3 mL with deionized water, resulting in a concentration of 10 µM. […] The binding constant Kα for the host-guest inclusion was determined.
During the test, the retinoic acid stock solution was added to a cuvette and adjusted to a volume of 3 mL with deionized water, resulting in a concentration of 15 µM.
During the test, the stock solution of the active substance was added to a cuvette and adjusted to a volume of 3 mL with deionized water, resulting in a concentration of 15 µM. […] The UV titration data were fitted using a 1:1 host-guest direct binding model to determine the binding constant Kα for the host-guest inclusion.

The nature of data set [3]: physchem. To be noted: water.
Experimental: Test Method: UV Absorption Spectroscopy.
The UV absorption intensities were measured, and a standard working curve was prepared. […] The mixtures were shaken overnight and then centrifuged to collect the supernatant for UV absorption curve detection.
A short description of data set [4]: Skin permeability test of retinoic acid (transdermal diffuser). To be noted: ointment base (cream), retinoic acid 1% (w/w), pig skin, 37°C, 24 hours. The class given is in vitro ADME.
Experimental: Testing Method: Skin Permeability Test
Testing Equipment: TP-6 Intelligent Transdermal Diffuser (Tianjin Jingtuo Instrument Technology Co., Ltd.)
Undamaged sections were cut into uniform thickness pieces, approximately 2 cm × 2 cm in size, wrapped in plastic wrap, and stored at -20°C for later use.
The concentration of retinoic acid in the inclusion complex was determined by UV detection, and subsequently diluted to 0.1% (w/w). Additionally, 3 mg of retinoic acid was weighed and mixed with 297 mg of cream in a mortar. The mixture was thoroughly ground to dissolve retinoic acid in the cream, resulting in a retinoic acid concentration of 1% (w/w).
The skin was placed between the diffusion and receptor compartments after thawing. The receptor compartment was filled with the receptor solution (deionized water), and all air bubbles were expelled. The receptor compartment was maintained at 37°C in a circulating water bath throughout the experiment. The transdermal diffuser was activated, with a magnetic stirring speed set at 300 r·min^-1. After 24 hours, the solutions from the receptor compartments of each group were collected for UV detection.
The nature of data set [5]: Solubilization of Retinoic acid by sulfonated calixarene (UV absorption). The class given is physicochemical. The conditions noted are these: 5 mg retinoic acid in 3 mL deionized water, shaken overnight, supernatant UV.
Experimental: Testing Equipment: A Japan Shimadzu UV-3600 UV-Visible Spectrophotometer, equipped with a temperature control module (model: PTC-348WI), was used. The samples were tested using Shimadzu's quartz cuvettes with an optical path length of 10 mm.
Excess retinoic acid was added to each of the three groups of solutions at a concentration of 5 mg/mL, followed by ultrasonic treatment to enhance the solubility of retinoic acid. After 20 mins, each group of solution was diluted 10-fold for UV absorption wavelength measurement. At the same time, 5 mg (an excess amount) of retinoic acid was added to 3 mL of deionized water, the mixture was shaken overnight, centrifuged to obtain the supernatant. […] Retinoic acid was dissolved in methanol solution to prepare a stock solution of 4 mM retinoic acid in methanol. After 20 mins, the stock solution of retinoic acid in methanol was diluted in water to prepare a retinoic acid standard solution with an appropriate concentration, for UV absorption wavelength detection. […]
A standard working curve for retinoic acid was prepared. […] Subsequently, the UV absorbance intensities of these six groups of solutions with different concentrations of retinoic acid were measured, and a standard working curve was prepared.
The nature of data set [6]: UV titration, binding constants between SC8A-12C and skincare active substances. To be noted: host SC8A-12C, active substance 15 µM in deionized water, 25°C, 1:1 host-guest direct binding model. Here is the method: as §1, §2
Va was dissolved in methanol to a concentration of 2 mM. During the test, the Va stock solution was added to a cuvette and adjusted to a volume of 3 mL with deionized water, resulting in a concentration of 10 µM. […] The change in UV absorption intensity was recorded after each addition of the SC8A-12C stock solution. […] The binding constant Kα for the host-guest inclusion was determined.
SC8A-12C stock solution and retinoic acid stock solution were first prepared. […] During the test, the retinoic acid stock solution was added to a cuvette and adjusted to a volume of 3 mL with deionized water, resulting in a concentration of 15 µM. […] The change in UV absorption intensity was recorded after each addition of the SC8A-12C stock solution.
During the test, the stock solution of the active substance was added to a cuvette and adjusted to a volume of 3 mL with deionized water, resulting in a concentration of 15 µM. […] The change in UV absorption intensity was recorded after each addition of the SC8A-12C stock solution. […]

The nature of data set [7]: Stabilization of Va by SC8A-12C (UV-visible spectrophotometry). The data set is classed as physicochemical. The conditions noted are these: free Va, methanol as a solvent aid, stored for two days in the dark. Here is the method:
Testing Method: UV-Visible Spectrophotometry.
Va was dissolved in methanol to prepare a Va methanol solution with a concentration of 4 mM, which was then kept in the dark for two days. The UV absorptions of both the freshly prepared and the two-day stored Va methanol solutions were tested. During the testing, the Va methanol solution was first added to a cuvette, and deionized water was used to adjust the volume to 3 mL, achieving a final concentration of Va at 10 µM.

The nature of data set [8]: Skin permeability test of Va (transdermal diffuser). The data set is classed as in vitro ADME. The conditions noted are these: Va 0.4% (w/w), pig skin, 37°C, 55 hours.
Experimental: Undamaged sections were cut into uniform thickness pieces approximately 2 cm × 2 cm in size, wrapped in plastic wrap, and stored at -20°C for later use. 0.8 mg of Va and 200 mg of skincare cream (ointment base) were weighed and added to a mortar. The mixture was thoroughly ground to dissolve Va in the skincare cream, resulting in a Va concentration of 0.4% (w/w). Subsequently, 0.8 mg of Va was weighed and dispersed in 200 µL of water by thoroughly shaking to prepare a suspension of Va (water base), with a Va concentration of 0.4% (w/w). […] The concentration of Va in the inclusion complex was also 0.4% (w/w). The skin was placed between the diffusion and receptor compartments after thawing. The receptor compartment was filled with the receptor solution (deionized water), and all air bubbles were expelled. The receptor compartment was maintained at 37°C in a circulating water bath throughout the experiment. The transdermal diffuser was activated, with a magnetic stirring speed set at 300 r·min^-1. After 55 hours, the solutions from the receptor compartments of each group were collected for UV detection.

Data on 21 compounds can be found in patent publication EP4566586A1, “SKIN-CARE PRODUCT COMPOSITION AND PHARMACEUTICAL COMPOSITION COMPRISING SULFONATED CALIXARENE, AND USE OF SULFONATED CALIXARENE” (Calix Biotechnology (Hangzhou) Co., Ltd, priority 2022, dated 2024).

≈ marks a conversion by molar mass, not a printed value. Marks after values point to notes of the source that are not given here.

On to `O=S(=O)(O)c1cc2c(O)c(c1)Cc1cc(S(=O)(=O)O)cc(c1O)Cc1cc(S(=O)(=O)O)cc(c1O)Cc1cc(S(=O)(=O)O)cc(c1O)C2` [SC4A, Sulfonated calix[4]arene], for which the “solubilization of Va” value in data set [1] is “failed to solubilize Va”.

Consider `O=S(=O)(O)c1cc2c(O)c(c1)Cc1cc(S(=O)(=O)O)cc(c1O)Cc1cc(S(=O)(=O)O)cc(c1O)Cc1cc(S(=O)(=O)O)cc(c1O)Cc1cc(S(=O)(=O)O)cc(c1O)Cc1cc(S(=O)(=O)O)cc(c1O)Cc1cc(S(=O)(=O)O)cc(c1O)Cc1cc(S(=O)(=O)O)cc(c1O)C2` [SC8A, Sulfonated calix[8]arene], for which the “solubilization of Va” value in data set [1] is reported as “failed to solubilize Va”.

On to `OC[C@H]1O[C@@H](Oc2ccc(O)cc2)[C@H](O)[C@@H](O)[C@@H]1O` [arbutin], for which, in data set [2], the “Binding constants Ka” value is 4.3±0.5×10^3 M^-1.

Regarding `O=C1O[C@H]([C@@H](O)CO)C(O)=C1O[C@H]1O[C@H](CO)[C@@H](O)[C@H](O)[C@H]1O` [ascorbyl glucoside], the “Binding constants Ka” value in data set [2] was 5.2±0.3×10^3 M^-1.

For `O=C(O)CCCCCCCC(=O)O` [azelaic acid], the “Binding constants Ka” value in data set [2] is listed as 5.2±0.1×10^3 M^-1.

With `Cn1c(=O)c2c(ncn2C)n(C)c1=O` [caffeine], the “Binding constants Ka” value in data set [2] is reported as 3.2±0.8×10^3 M^-1.

Take `CC(C)CCC[C@@H](C)[C@H]1CC[C@H]2[C@@H]3CC=C4C[C@@H](O)CC[C@]4(C)[C@H]3CC[C@]12C` [cholesterol]: the “Binding constants Ka” value in data set [2] is listed as 2.3±0.5×10^5 M^-1.

On to `CCCCCCCCCCO[C@@H]1O[C@H](CO)[C@@H](O)[C@H](O)[C@H]1O` [decyl glucoside], for which the “Binding constants Ka” value in data set [2] is given as 3.3±0.5×10^4 M^-1.

Take `CCCCCCOC(=O)c1ccccc1C(=O)c1ccc(N(CC)CC)cc1O` [diethylamino hydroxybenzoyl hexyl benzoate]: the “Binding constants Ka” value in data set [2] is 3.8±0.3×10^3 M^-1.

Turning to `Nc1ccc(C(=O)OCC(O)CO)cc1` (stereo not shown) [glyceryl p-aminobenzoate], in data set [2], the “Binding constants Ka” value was 2.9±0.2×10^3 M^-1.

As for `CC(c1ccccc1)c1ccc(O)cc1O` (stereo not shown) [phenylethyl resorcinol], in data set [3], the solubility (in general, the concentration that dissolves in the medium under given conditions) turned out to be 4900 µg/mL (≈ 22.9 mM).

`CC1=C(/C=C/C(C)=C/C=C/C(C)=C/C(=O)O)C(C)(C)CCC1` [retinoic acid]: the “retinoic acid in the receptor compartment (UV absorption peak)” value in data set [4] is on record as “no absorption peak of retinoic acid was detected”. Besides, in data set [5], the “solubility of retinoic acid in water” value is “hardly soluble”.

As to `OC[C@@H](O)[C@@H](O)[C@H](O)[C@@H](O)CO` [sorbitol], the “Binding constants Ka” value in data set [2] was 5.3±0.4×10^3 M^-1.

For the compound ceramides, in data set [2], the “Binding constants Ka” value is 6.5±0.2×10^3 M^-1.

As for cocamidopropyl betaine, in data set [2], the “Binding constants Ka” value is reported as 0.8±0.1×10^4 M^-1.

On to palmitoyl tripeptide-5, for which the “Binding constants Ka” value in data set [6] is listed as 6.3±0.6×10^3 M^-1.

As for proanthocyanidins, in data set [2], the “Binding constants Ka” value is recorded as 2.6±0.3×10^3 M^-1.

Consider sphingolipids, for which the “Binding constants Ka” value in data set [2] is recorded as 2.5±0.5×10^3 M^-1.

Consider vitamin A, for which the “UV absorption of the Va aqueous solution after storage” value in data set [7] is “significantly decreased”. Further, the “Va in the receptor compartment” value in data set [8] (ointment base) is “no Va was detected”. Also, the “permeability of Va” value in data set [8] (water base (suspension)) is reported as “not good enough”. Moreover, the “solubility of Va in water” value in data set [1] (5 mg Va in 3 mL deionized water, shaken overnight, supernatant UV) is on record as “almost insoluble”. Moreover, the “[dissolved Va]” value in data set [1] ([SC8A-12C] 0 µM, Not detected under UV) is recorded as 0* µM. In data set [2] (guest Va 10 µM (317 nm) or retinoic acid 15 µM), the “binding constant Kα of SC8A-12C” value is on record as “(4.0 ± 0.5) ×10^5 M^-1”. Also, the “Binding constants Ka” value in data set [2] is reported as 4.4±0.5×10^5 M^-1.

As for vitamin E, the “Binding constants Ka” value in data set [2] was 2.6±0.4×10^3 M^-1.

Consider α-bisabolol, for which the “Binding constants Ka” value in data set [2] is 2.8±0.6×10^4 M^-1.
